Tests used:
[1] = test system: human androgen receptor (hAR); assay: Androgen receptor transcriptional activation and inhibition assays; format: cell-based
MDA-kb2 cells = assay: Cytotoxicity in the androgen receptor reporter cells; format: cell-based
[2] = test system: S typhimurium tester strains TA98, TA100, TA1535, and TA1537 and E coli tester strain WP2uvrA(pKM101); settings: all doses with and without S9

With `CCCCC/C=C\C/C=C\CCCCCCCCP(=O)(OCC)OCC` [NKS-3, diethyl (9Z,12Z)-octadeca-9,12-dien-1-ylphosphonate] the “androgenic or antiandrogenic property (conclusion)” value [1] was “did not possess androgenic or antiandrogenic property”, the cytotoxic concentrations (MDA-kb2 cells; MDA-kb2 cells) was no less than 10 µmol/L and the highest non-cytotoxic concentration (MDA-kb2 cells; androgen receptor assays) was 5 µmol/L. The “toxicity in the tester strains” value [2] was “No toxicity”.
